Patent US10660933B2, “Compositions and methods for inhibition of bacterial infections in human endocervix” (priority 2015, dated 2020)

What was measured:
cytoplasmic Ca2+ = assay: Calcium imaging of Ng-inoculated polarized epithelial cells (FluoForte, Fluo-4); assay type: cell-based, human; details: MS11Opa+ and MS11ΔOpa-inoculated polarized epithelial cells, 4 h; 2APB 10 μM, BAPTA 50 μM
Description: Ng inoculation induces Ca^2+-dependent redistribution of active NMII in polarized epithelial cells. A major upstream signaling molecule of MLCK is calmodulin that is activated by Ca^2+. To investigate if Ca^2+ is involved in Ng induced redistribution of active NMII, we determined if Ng inoculation would induce Ca^2+ flux in polarized epithelial cells. We used two Ca^2+ indicators, FluoForte (FIGS. 7A and 7B) and Fluo-4 (FIG. 11) to determine the cytoplasmic Ca^2+ level. Polarized T84 (FIGS. 7A and 7B, and FIG. 11A and FIG. 11B) and HEC-1-B (FIG. 11C and FIG. 11D) were incubated apically with MS11Opa+ or MS11ΔOpa for 4 h. The cells were then loaded with the fluorescent Ca^2+ indicator, and the cell membrane marked by the membrane dye CellMask. Cells were imaged using 3D-CFM (FIG. 7A, and FIGS. 11A and 11C). The mean fluorescence intensity (MFI) of the Ca^2+ dyes in individual cells was measured to estimate the cytoplasmic level of Ca^2+ (FIG. 7B, and FIGS. 11B and 11D). […]
Calcium imaging. […] To quantify the intracellular Ca^2+ level, the cytoplasmic region of individual cells was manually selected based on the CellMask staining in randomly acquired confocal images, and the mean fluorescent intensity (MFI) of Fluoforte and Fluo-4 in the cytoplasmic region was measured using the NIH ImageJ software.

ZO1 = ZO1 distribution and cell morphology in Ng-infected human endocervical tissue explants; assay type: cell-based; details: MS11ΔOpa 24 h, ML-7 10 μM
Description: We determined if MS11ΔOpa can induce the disruption of the apical junction in human endocervical tissue. Sections of uninfected and infected tissue explants were stained for the junctional protein ZO1, Ng, and DNA and analyzed by 3D-CFM (FIG. 4G). We quantified junction disruption by determining the percentage of Ng associated epithelial cells that lost continuous apical staining of ZO1, using 3D reconstituted confocal images (FIG. 4G, right panels). […] In contrast to the recruitment of ZO1 to epithelial cells neighboring exfoliating cells in uninfected monolayers, no accumulation of ZO1 staining was observed around Ng infected exfoliating cells (FIG. 4I, arrows). […] Treatment with the MLCK inhibitor ML-7 restored both the morphology (FIG. 4G left panels) and apical distribution of ZO1 (FIG. 4H).
Immunofluorescence analysis of human endocervical tissue explants. […] The tissue was fixed, embedded in gelatin, cryopreserved, sectioned crossing the apical and basolateral surfaces of the epithelium, stained for ZO1 (BD Bioscience), pMLC (Cell Signaling Technology, Beverly, Mass.), and Ng (51) by specific antibodies, and nuclei by DAPI (Life Technologies, Carlsbad, Calif.), and analyzed using CFM (Zeiss LSM 710, Carl Zeiss Microscopy LLC, Oberkochen, Germany). […]

[1] = system: Neisseria gonorrhoeae MS11ΔOpa; assay: Ng subepithelial penetration in human endocervical tissue explants (3D-CFM); assay type: cell-based; details: MS11ΔOpa, 24 h; ML-7 10 μM or PIK 100 μM; 27% without inhibitor
Procedure: Human endocervical tissue explants. The tissue explants were cultured as previously described. Endocervical tissues were obtained from patients undergoing voluntary hysterectomies and received within 24 h post-surgery. Samples were cut into ˜2.5 cm (L)×0.6 cm (W)×0.3 cm (H) pieces, incubated in CMRL-1066 (GIBCO, Gaithersburg, Md.) plus antibiotics for 24 h, and then switched to antibiotic-free media for 24 h.
Immunofluorescence analysis of human endocervical tissue explants. Individual endocervical tissue pieces were incubated with Ng at a MOI of ˜10 (based on the average number of endocervical epithelial cells in endocervical tissue pieces) in the presence or absence of the MLCK inhibitor ML-7 (10 μM, EMD Millipore) and PIK (100 μM) (54) on transwells for 24 h. Unassociated Ng were removed by extensive washes at 6 and 12 h. The tissue was fixed, embedded in gelatin, cryopreserved, sectioned crossing the apical and basolateral surfaces of the epithelium, stained for ZO1 (BD Bioscience), pMLC (Cell Signaling Technology, Beverly, Mass.), and Ng (51) by specific antibodies, and nuclei by DAPI (Life Technologies, Carlsbad, Calif.), and analyzed using CFM (Zeiss LSM 710, Carl Zeiss Microscopy LLC, Oberkochen, Germany). […]
To quantify epithelial exfoliation, the number of Ng associated cells localized on the top of the epithelial monolayer (exfoliated) and the total number of Ng associated epithelial cells was counted by visual inspection in each randomly acquired image, to determine the percentage of exfoliated cells. To estimate the level of Ng penetration into the subepithelium, the number of non-exfoliated epithelial cells (in clearly visible epithelial monolayers) with basal Ng staining and the total number of Ng associated epithelial cells were visually counted to calculate the percentage of infected epithelial cells with Ng penetration into the basolateral side. […] To quantify the redistribution of pMLC, the fluorescence intensity ratios (FIR) of pMLC staining at the apical to lateral in individual epithelial cells were determined using average FI as previously described.

Structure (SMILES)	MFI of the Ca2+ indicators (cytoplasmic Ca2+ level) (cytoplasmic Ca2+)	apical distribution of ZO1 (ZO1)	morphology of endocervical epithelial cells (ZO1)	percentage of epithelial cells with basally associated Ng [1] [%]
NCCOB(c1ccccc1)c1ccccc1 [2APB]	back to the basal level			
O=S(=O)(c1cccc2c(I)cccc12)N1CCCNCC1 [ML-7]		restored	restored	7.1
